Results on 26 compounds are retold here after US10118902B2 (Sanford Burnham Prebys Medical Discovery Institute, priority 2014, dated 2018).

Where only a bound is given, the exact number is not on record here.

As a reminder, the EC50 is the concentration giving half of the maximal effect.

The target of the first assay is neurotensin receptor 1 (NTR1) (Homo sapiens (Human), UniProt P30989). Put plainly: NTR1 dose response, high-content imaging beta-arrestin-GFP assay in NTR1-U2OS cells.
neurotensin receptor 1 (NTR1), sequence (P30989 whole entry, species assumed): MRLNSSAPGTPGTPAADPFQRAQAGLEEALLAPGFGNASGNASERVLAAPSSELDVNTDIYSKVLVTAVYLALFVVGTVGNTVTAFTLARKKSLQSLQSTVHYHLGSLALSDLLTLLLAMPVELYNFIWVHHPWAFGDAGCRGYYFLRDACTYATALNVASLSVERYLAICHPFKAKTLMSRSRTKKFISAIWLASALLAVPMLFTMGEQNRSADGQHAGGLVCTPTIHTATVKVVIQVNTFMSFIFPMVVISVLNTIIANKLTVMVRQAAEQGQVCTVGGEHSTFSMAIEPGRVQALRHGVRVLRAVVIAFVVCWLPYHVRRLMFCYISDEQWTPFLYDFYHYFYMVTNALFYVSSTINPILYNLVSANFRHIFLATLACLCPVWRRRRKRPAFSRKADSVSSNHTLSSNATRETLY
Details: not given
The format is cell-based. Further details: scale not given here. From the text:
The cell lines utilized in the high-content imaging assays, which include the NTR1-, NTR2-, and GPR35-U2OS osteosarcomas, were obtained from the laboratory of Dr. Lawrence Barak at the Duke University Medical Center. The media used in the culture of the cell lines, as well as the assays themselves, consisted of Minimum Essential Medium (15-010-CM) and L-glutamine (25-005-CL) from Cellgro/Mediatech (Manassas, Va.), fetal bovine serum (SH30396.03) from Hyclone (Logan, Utah), penicillin-streptomycin solution (PS-20) from Omega Scientific in Tarzana, Calif., G418 (ant-gn-1) from Invivogen (San Diego, Calif.), and zeocin (R250-01) from Invitrogen (Carlsbad, Calif.). Cell lines were cultured in T225 tissue culture flasks (431082) supplied by Corning (Corning, N.Y.). Additional reagents employed include Dulbecco's Phosphate-Buffered Saline (DPBS) (21-031CV) from Cellgro/Mediatech, Trypsin-EDTA 0.05% (25300) from Invitrogen, paraformaldehyde (30528954) from Acros Organics (Geel, Belgium), Hoechst 33342 (H3570) from Invitrogen. The high-content assays were run in 1536-well plates (29326) supplied by Aurora Biotechnology (Poway, Calif.) and utilized aluminum plate seals (T592100) from E&K Scientific (Santa Clara, Calif.). […]
The high-content imaging based NTR1 primary screen in 1536-well format was utilized to assay the MLSMR library of chemical entities in the following manner. On day one, 4 uL of a cell suspension containing 350,000 NTR1-U2OS cells per mL is added to each well of a 1536-well assay plate. Cells are plated in MEM medium containing 2.5% Fetal Bovine Serum, 1% Penicillin/Streptomycin solution, 1% L-Glutamine, 400 ug/mL G418, and 200 ug/mL Zeocin. The assay plates are then incubated overnight at 37° C., under 5% CO2. Following the overnight incubation, a volume of 60 nL of the compounds at 2 mM in DMSO (final 20 μM, 1% DMSO) was transferred to columns 5-48 of the assay plates using a LabCyte Echo Liquid Handler. Next, 60 nL of DMSO were dispensed to columns 1-4, which served as the positive and neutral control wells. […] The assay plates were centrifuged on an Eppendorf 5810 centrifuge at 1000 rpm for 1 min to ensure even liquid levels in the wells of the assay plates. The assay plates were then returned to the incubator for 1 hour. Following the hour-long incubation at 37° C., the cells in each well were fixed with 4 uL of 6% paraformaldehyde added with a Multidrop Combi. The assay plates were centrifuged as before and incubated at room temperature for 1 hour. On the Kalypsys, plates were then aspirated down to 2.5 uL per well and washed twice with 11 uL per well of DPBS, followed by a final aspiration to 2.5 uL per well. On the Combi dispenser, 5 uL of 5 ug/mL Hoechst 33342 diluted in DPBS was added to each well of assay plates. The plates were again centrifuged as previously described, sealed, and incubated for at least 1 hour prior to being loaded on a PerkinElmer Opera QEHS.
Image acquisition was performed with a 45 plate capacity loader/stacker and the following settings: 40×0.6 NA air objective, acquisition camera set to 2-by-2 binning for an image size of 688 by 512 pixels, beta-arrestin-GFP acquired using 488 nm laser excitation and 540/75 nm emission filters, DAPI (nuclei) using 365 nm Xenon lamp excitation and 450/50 nm emission filters, 3 fields per well. Image analysis was performed using the Acapella Spot Detection Algorithm. For analysis settings and the metrics employed in the data analyses, please refer to supplemental information.
Compounds that were successfully confirmed in quadruplicate at 20 uM were then run in dose response in the primary assay. As with the single concentration hit confirmation, the assay was performed in an identical manner as the primary screen with the following modifications. […]
Regarding `COc1ccccc1C1CCN(c2nc(C3CCC3)nc3ccc(N(C)C)cc23)CC1` [Example 42, {2-cyclobutyl-4-[4-(2-methoxy-phenyl)-piperidin-1-yl]-quinazolin-6-yl}-dimethyl-amine], the EC50 result is reported as “C or D”.

The same assay, now with this note: read-out: EC50.
In the case of `CN(C)CCN(C)c1ccc2nc(C3(C)CC3)nc(N3CCC(c4ccccc4N4CCC4)CC3)c2c1` [Example 35, N-[4-[4-(2-azetidin-1-yl-phenyl)-piperidin-1-yl]-2-(1-methyl-cyclopropyl)-quinazolin-6-yl]-N,N′,N′-trimethyl-ethane-1,2-diamine], the concentration for a half-maximal effect (EC50) was above 10000 nM.

As for `CN(CCN1CCCC1)c1ccc2nc(C3(C)CC3)nc(N3CCC(c4ccccc4N4CCC4)CC3)c2c1` [Example 36, [4-[4-(2-azetidin-1-yl-phenyl)-piperidin-1-yl]-2-(1-methyl-cyclopropyl)-quinazolin-6-yl]-methyl-(2-pyrrolidin-1-yl-ethyl)-amine], the EC50 was above 10000 nM.

As to `COc1ccccc1C1CCN(c2nc(C3CCCC3)nc3ccc(N(C)C)cc23)CC1` [Example 37, {2-cyclopentyl-4-[4-(2-methoxy-phenyl)-piperidin-1-yl]-quinazolin-6-yl}-dimethyl-amine], the EC50 is above 10000 nM. Regarding `COc1ccccc1C1CCN(c2nc(C3CCCC3)nc3ccc(N(C)CCO)cc23)CC1` [Example 38, 2-({2-cyclopentyl-4-[4-(2-methoxy-phenyl)-piperidin-1-yl]-quinazolin-6-yl}-methyl-amino)-ethanol], the EC50 fell in the range of 2000 to 10000 nM. Same read-out and setting: the value for `COCCN(C)c1ccc2nc(C3CCCC3)nc(N3CCC(c4ccccc4OC)CC3)c2c1` [Example 39, {2-cyclopentyl-4-[4-(2-methoxy-phenyl)-piperidin-1-yl]-quinazolin-6-yl}-(2-methoxy-ethyl)-methyl-amine] was above 10000 nM. As for `CCCN(C)c1ccc2nc(C3CCCC3)nc(N3CCC(c4ccccc4OC)CC3)c2c1` [Example 40], the EC50 was above 10000 nM.

Consider `COc1ccccc1C1CCN(c2nc(C3CCCC3)nc3ccc(N(C)CCN4CCOCC4)cc23)CC1` [Example 41], for which the EC50 was above 10000 nM. Still for that read-out and setting: the value for `COc1ccccc1C1CCN(c2nc(C3CCC3)nc3ccc(N(C)CCO)cc23)CC1` [Example 43, 2-({2-cyclobutyl-4-[4-(2-methoxy-phenyl)-piperidin-1-yl]-quinazolin-6-yl}-methyl-amino)-ethanol] was 500 to 2000 nM; that for `COCCN(C)c1ccc2nc(C3CCC3)nc(N3CCC(c4ccccc4OC)CC3)c2c1` [Example 44] was 2000 to 10000 nM. On the same count and under the same terms, then `CCCN(C)c1ccc2nc(C3CCC3)nc(N3CCC(c4ccccc4OC)CC3)c2c1` [Example 45, {2-cyclobutyl-4-[4-(2-methoxy-phenyl)-piperidin-1-yl]-quinazolin-6-yl}-methyl-propyl-amine], with above 10000 nM.

For the compound `COc1ccccc1C1CCN(c2nc(C3CCC3)nc3ccc(N(C)CCN4CCOCC4)cc23)CC1` [Example 46, {2-cyclobutyl-4-[4-(2-methoxy-phenyl)-piperidin-1-yl]-quinazolin-6-yl}-methyl-(2-morpholin-4-yl-ethyl)-amine], the EC50 lay within 2000 to 10000 nM.

On to `COc1ccccc1C1CCN(c2nc(C3(C(F)(F)F)CC3)nc3ccc(N(C)CCO)cc23)CC1` [Example 47, 2-{[4-[4-(2-methoxy-phenyl)-piperidin-1-yl]-2-(1-trifluoromethyl-cyclopropyl)-quinazolin-6-yl]-methyl-amino}-ethanol], for which the EC50 is below 500 nM. Turning to `COc1ccccc1C1CCN(c2nc(C3(C(F)(F)F)CC3)nc3ccc(N(C)CCN4CCOCC4)cc23)CC1` [Example 48], the EC50 was in the range of 2000 to 10000 nM.

On to `CN(C)c1ccccc1C1CCN(c2nc(C3(C(F)(F)F)CC3)nc3ccc(N(C)CCO)cc23)CC1` [Example 49, 2-{[4-[4-(2-dimethylamino-phenyl)-piperidin-1-yl]-2-(1-trifluoromethyl-cyclopropyl)-quinazolin-6-yl]-methyl-amino}-ethanol], for which the EC50 is 500 to 2000 nM.

In the case of `CN(C)c1ccccc1C1CCN(c2nc(C3(C(F)(F)F)CC3)nc3ccc(N(C)CCN4CCOCC4)cc23)CC1` [Example 50, [4-[4-(2-dimethylamino-phenyl)-piperidin-1-yl]-2-(1-trifluoromethyl-cyclopropyl)-quinazolin-6-yl]-methyl-(2-morpholin-4-yl-ethyl)-amine], the EC50 is above 10000 nM.

For `COc1ccccc1C1CCN(c2nc(C3(C)CCCC3)nc3ccc(N(C)CCO)cc23)CC1` [Example 51, 2-{[4-[4-(2-methoxy-phenyl)-piperidin-1-yl]-2-(1-methyl-cyclopentyl)-quinazolin-6-yl]-methyl-amino}-ethanol], the concentration giving a half-maximal response (EC50) lay in the range of 2000 to 10000 nM. The same measure, in the same setting: then `COc1ccccc1C1CCN(c2nc(C3(C)CCCC3)nc3ccc(N(C)CCN4CCOCC4)cc23)CC1` [Example 52], with 2000 to 10000 nM. On the same count and under the same terms, then `CN(C)c1ccccc1C1CCN(c2nc(C3(C)CCCC3)nc3ccc(N(C)CCO)cc23)CC1` [Example 53, {[4-[4-(2-Dimethylamino-phenyl)-piperidin-1-yl]-2-(1-methyl-cyclopentyl)-quinazolin-6-yl]-methyl-amino}-ethanol], with 2000 to 10000 nM; and `CN(C)c1ccccc1C1CCN(c2nc(C3(C)CCCC3)nc3ccc(N(C)CCN4CCOCC4)cc23)CC1` [Example 54, [4-[4-(2-dimethylamino-phenyl)-piperidin-1-yl]-2-(1-methyl-cyclopentyl)-quinazolin-6-yl]-methyl-(2-morpholin-4-yl-ethyl)-amine], with 2000 to 10000 nM. The same measure, in the same setting: then `COc1ccccc1C1CCN(c2nc(C3(C(F)(F)F)CCCC3)nc3ccc(N(C)CCO)cc23)CC1` [Example 55, 2-{[4-[4-(2-methoxy-phenyl)-piperidin-1-yl]-2-(1-trifluoromethyl-cyclopentyl)-quinazolin-6-yl]-methyl-amino}-ethanol], with 2000 to 10000 nM; and `COc1ccccc1C1CCN(c2nc(C3(C(F)(F)F)CCCC3)nc3ccc(N(C)CCN4CCOCC4)cc23)CC1` [Example 56, [4-[4-(2-methoxy-phenyl)-piperidin-1-yl]-2-(1-trifluoromethyl-cyclopentyl)-quinazolin-6-yl]-methyl-(2-morpholin-4-yl-ethyl)-amine], with 2000 to 10000 nM; and `CN(C)c1ccccc1C1CCN(c2nc(C3(C(F)(F)F)CCCC3)nc3ccc(N(C)CCO)cc23)CC1` [Example 57, 2-{[4-[4-(2-dimethylamino-phenyl)-piperidin-1-yl]-2-(1-trifluoromethyl-cyclopentyl)-quinazolin-6-yl]-methyl-amino}-ethanol], with 500 to 2000 nM. Turning to `CN(C)c1ccccc1C1CCN(c2nc(C3(C(F)(F)F)CCCC3)nc3ccc(N(C)CCN4CCOCC4)cc23)CC1` [Example 58, [4-[4-(2-dimethylamino-phenyl)-piperidin-1-yl]-2-(1-trifluoromethyl-cyclopentyl)-quinazolin-6-yl]-methyl-(2-morpholin-4-yl-ethyl)-amine], the EC50 is 2000 to 10000 nM. Same read-out and setting: then `COc1ccccc1C1CCN(c2nc(C3(F)CCC3)nc3ccc(N(C)CCO)cc23)CC1` [Example 59, 2-({2-(1-fluoro-cyclobutyl)-4-[4-(2-methoxy-phenyl)-piperidin-1-yl]-quinazolin-6-yl}-methyl-amino)-ethanol], with below 500 nM; and `COc1ccccc1C1CCN(c2nc(C3(F)CCC3)nc3ccc(N(C)CCN4CCOCC4)cc23)CC1` [Example 60, {2-(1-fluoro-cyclobutyl)-4-[4-(2-methoxy-phenyl)-piperidin-1-yl]-quinazolin-6-yl}-methyl-(2-morpholin-4-yl-ethyl)-amine], with below 500 nM.
